The text below walks through data of paper PMC12624955, “Exploring diarylheptanoid derivatives to target LIMK1 as potential agents against colorectal cancer” (Journal of Enzyme Inhibition and Medicinal Chemistry, 2025).

Read-outs that look alike come from different tables or passages of the source.

In assay [1] the target is T1, LIMK1 (Homo sapiens, UniProt P53667).
T1 construct: purchased Thermo Fisher Scientific (SelectScreen Kinase assay service)
The assay is described as follows: LanthaScreen Eu kinase binding assay (SelectScreen), LIMK1 inhibition. Conditions: for inhibition at 10 µM: compound at 10 μM, average of two replicates, read-out: Inhibition percentage at 10 μM. The protocol:
The inhibitory activities of the compounds against kinases were tested using the SelectScreen Kinase assay from Thermo Fisher Scientific in Waltham, MA, USA. The LanthaScreen Eu kinase binding assay was used to validate the LIMK1 inhibition activity of the compounds, and was performed according to the manufacturer’s protocol (https://www.thermofisher.com/tw/zt/home/industrial/pharma-biopharma/drug-discovery-development/target-and-lead-identification-and-validation/kinasebiology/kinase-activity-assays/lanthascreentm-eu-kinase-binding-assay/lanthascreen-eu-kinase-binding-assay-validation-table.html). This endpoint assay quantifies inhibitor binding through the displacement of a fluorescently labelled ATP-competitive tracer from LIMK1. A mixture of the 100× compounds, 2× LIMK1/antibody mixture (Eu-anti-His), 4× tracer 236, and kinase buffer were mixed sequentially. After incubation at room temperature for 1 h, the mixture was analysed using a fluorescence plate reader. The kinase inhibition assay results were expressed as the average of two replicates.
For orientation: Time-resolved FRET reads energy transfer from a long-lived donor to a nearby acceptor.

The test system of assay [2] is HCT-116. Put plainly: MTT assay (cell viability). It is filed as cell-based. The note with it: Homo sapiens, 72 h, mean ± SD. As to the method:
(§1) Colorectal cell line, HCT-116, was purchased from the Bioresource Collection and Research Centre (BCRC, Hsinchu, Taiwan), while HT-29 was obtained from the American Type Culture Collection (ATCC, Manassas, VA, USA). Both cell lines were maintained in McCoy’s 5 A medium (with L-glutamine and 2.2 g/L NaHCO3, M4892, Sigma) supplemented with 10% foetal bovine serum (Corning Incorporated, NY, USA) and 1% penicillin–streptomycin–amphotericin B (100 unit/ml penicillin G, 0.1 mg/ml streptomycin sulphate, 0.25 μg/ml amphotericin B, Corning Incorporated, NY, USA). All cultures were maintained in a humidified incubator at 37 °C with 5% CO2.
(§2) Cells were seeded in 96-well plates at a density of 3 × 10^3 cells/well in 100 μl of culture medium and treated with compounds at the indicated concentrations (0.3, 1, 3, 10, and 30 μM) for 72 h. Following treatment, the 3-(4,5-dimethylthiazol-2-yl)-2,5-diphenyltetrazolium bromide (MTT) solution (5 mg/ml in Phosphate-buffered saline (PBS)) was added to each well to reach a final concentration of 0.5 mg/ml, and the cells were incubated at 37 °C for 1 h. The resulting formazan crystal was dissolved in 100 µl of DMSO, and the absorbance was measured at 550 nm using an ELISA reader (Molecular Device, Sunnyvale, CA, USA).
(Formazan colour is commonly taken as a measure of viable cells.)

For assay [3], the system named is HT-29. Put plainly: MTT assay (cell viability). Type of assay: cell-based. Conditions: Homo sapiens, 72 h, mean ± SD. As to the method: as §1, §2
Assay [4] has as its system HCT-116. The assay is described as follows: Sulforhodamine B assay (cell proliferation). It is filed as cell-based. As to the method:
as §1
(§3) Cells were seeded in 96-well plates at a density of 3 × 10^3 cells/well in 100 μl of culture medium and treated with compounds at the indicated concentrations for 72 h. After treatment, cells were fixed with 10% trichloroacetic acid for 20 min and washed with H2O. The cells were then stained with 0.4% sulforhodamine B (SRB) in 1% acetic acid for 20 min, followed by two washes with 1% acetic acid. After the well-dried, the protein-bound dye was dissolved in 100 µl of 10 mM Tris base solution, and the absorbance was measured at 515 nm using an ELISA reader (Molecular Device, Sunnyvale, CA, USA).
On the technique in general: The SRB assay estimates cell density from bound dye.

Assay [5] has as its system HT-29. The assay is described as follows: Sulforhodamine B assay (cell proliferation). Type of assay: cell-based. Conditions: Homo sapiens, SRB assay, 72 h, mean ± SD. The protocol: as §1, §3
Assay [6] concerns LIMK. The note with it: cited from earlier work.

T1 sequence (P53667 whole entry): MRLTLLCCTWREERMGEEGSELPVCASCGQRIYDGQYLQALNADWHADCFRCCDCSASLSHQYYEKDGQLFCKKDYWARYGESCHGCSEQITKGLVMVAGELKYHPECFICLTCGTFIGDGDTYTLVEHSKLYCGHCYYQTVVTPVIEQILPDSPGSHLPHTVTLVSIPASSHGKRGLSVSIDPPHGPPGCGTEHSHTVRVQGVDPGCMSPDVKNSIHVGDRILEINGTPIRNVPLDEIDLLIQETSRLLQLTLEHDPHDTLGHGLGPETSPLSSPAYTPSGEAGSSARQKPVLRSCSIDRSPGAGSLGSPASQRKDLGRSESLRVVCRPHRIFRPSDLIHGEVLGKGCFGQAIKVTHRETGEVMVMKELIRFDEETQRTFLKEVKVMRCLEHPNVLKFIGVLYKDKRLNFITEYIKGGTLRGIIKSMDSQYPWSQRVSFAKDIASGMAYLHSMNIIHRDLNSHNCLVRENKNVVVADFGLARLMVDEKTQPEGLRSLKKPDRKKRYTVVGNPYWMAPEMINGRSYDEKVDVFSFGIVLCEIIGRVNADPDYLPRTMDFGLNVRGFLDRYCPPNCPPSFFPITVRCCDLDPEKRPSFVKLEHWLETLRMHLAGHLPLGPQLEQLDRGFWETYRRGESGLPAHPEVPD

The IC50 is the concentration needed to halve the response being measured. As a reminder, the inhibition is the relative decrease from the control value, in per cent. Regarding `O=C(/C=C/c1ccc(O)c(O)c1)CCCCc1ccccc1O` [Compound 7a, 1-(3.4-Dihydroxyphenyl)-7-(2-hydroxyphenyl)hept-1-en-3-one], in assay [1], the half-maximal inhibitory concentration (IC50) was 1.77 µM and the inhibition at 10 µM was 89%. On the same counts, the results for `O=C(/C=C/c1ccc(O)c(O)c1)CCCCc1cccc(O)c1` [Compound 7b, 1-(3.4-Dihydroxyphenyl)-7-(3-hydroxyphenyl)hept-1-en-3-one] are 1.11 µM and 102%. Taken in the same sequence, the figures for `O=C(/C=C/c1ccc(O)c(O)c1)CCCCc1ccc(O)cc1` [Compound 7c, 1-(3.4-Dihydroxyphenyl)-7-(4-hydroxyphenyl)hept-1-en-3-one] were 1.09 µM and 106%.

`O=C(CCCCc1ccccc1O)CCc1ccc(O)c(O)c1` [Compound 8a, 1-(3.4-Dihydroxyphenyl)-7-(2-hydroxyphenyl)heptan-3-one]: the inhibition at 10 µM in assay [1] stood at 37%. Consider `O=C(CCCCc1cccc(O)c1)CCc1ccc(O)c(O)c1` [Compound 8b, 1-(3.4-Dihydroxyphenyl)-7-(3-hydroxyphenyl)heptan-3-one], for which the inhibition at 10 µM in assay [1] amounted to 34%. Same read-out and setting: with `O=C(CCCCc1ccc(O)cc1)CCc1ccc(O)c(O)c1` [Compound 8c, 1-(3.4-Dihydroxyphenyl)-7-(4-hydroxyphenyl)heptan-3-one] the figure was 47%. Take `O=C(/C=C/c1ccc(O)c(O)c1)CCCCn1ccc2ccc(O)cc21` [Compound 13b, (E)-1-(3.4-dihydroxyphenyl)-7-(6-hydroxy-1H-indol-1-yl)hept-1-en-3-one]: in assay [1], the IC50 came out at 1.39 µM and the inhibition at 10 µM was found to be 106%.

Turning to `O=C(CCCCn1ccc2c(O)cccc21)CCc1ccc(O)c(O)c1` [Compound 14a, 1-(3,4-Dihydroxyphenyl)-7-(4-hydroxy-1H-indol-1-yl)heptan-3-one], the inhibition at 10 µM in assay [1] worked out at 51%.

Regarding `O=C(CCCCn1ccc2ccc(O)cc21)CCc1ccc(O)c(O)c1` [Compound 14b, 1-(3,4-Dihydroxyphenyl)-7-(6-hydroxy-1H-indol-1-yl)heptan-3-one], the inhibition at 10 µM in assay [1] came to 53%.

Consider `COCOc1cccc2c1ccn2CCCCC(=O)/C=C/c1ccc(O)c(O)c1` [Compound 15, (E)-1-(3,4-dihydroxyphenyl)-7-(4-(methoxymethoxy)-1H-indol-1-yl)hept-1-en-3-one], for which, in assay [1], the half-inhibitory concentration (IC50) was determined as 1.88 µM and the inhibition at 10 µM stood at 106%. Consider `O=C(/C=C/c1ccc(O)c(O)c1)CCCCn1ccc2ccccc21` [Compound 18, (E)-1-(3,4-dihydroxyphenyl)-7-(1H-indol-1-yl)hept-1-en-3-one], for which, in assay [1], the IC50 was 1.49 µM and the inhibition at 10 µM was 110%.

Regarding `O=C(CCCCn1ccc2ccccc21)CCc1ccc(O)c(O)c1` [Compound 19, 1-(3,4-Dihydroxyphenyl)-7-(1H-indol-1-yl)heptan-3-one], the inhibition at 10 µM in assay [1] worked out at 28%. In the case of `O=C(/C=C/c1ccc(O)c(O)c1)CCCCc1ccccc1` [Compound I], in assay [1], the concentration for half-maximal inhibition (IC50) is 1.59 µM and the inhibition at 10 µM stood at 101%.

On to `O=C(/C=C/c1ccccc1)CCCCc1ccccc1` [Compound VII], for which the inhibition at 10 µM in assay [1] is not above 0%. On the same count and under the same terms, with `O=C(/C=C/c1ccc(O)c(O)c1)CCCc1ccccc1` [Compound VI] the figure was 82%; with `O=C(/C=C/c1ccc(O)c(O)c1)CCc1ccccc1` [Compound V], 68%. By GI50 is commonly meant the concentration at which growth is held to half of that of the control. Low values mean greater sensitivity of the cells, high ones lower sensitivity of the cells. Consider `O=C(/C=C/c1cc(O)c(O)c(O)c1)CCCCc1ccccc1` [Compound XV], for which the 50% inhibitory concentration (IC50) is more than 30 µM in assay [2], more than 30 µM in assay [3], 0.57 µM in assay [1] and 0.569 µM in assay [1] (as printed in text). The inhibition at 10 µM in assay [1] was determined as 112%. For the same compound, the 50% growth inhibitory concentration (GI50) in assay [4] (Homo sapiens, SRB assay, 72 h, mean ± SD) was more than 30 µM; in assay [5], 28.8 ± 1.8 µM. Further, in assay [4] (concentration of 30 µM), the “growth inhibition of HCT-116 cells” value is reported as “did not inhibit the growth”. As to `O=C(/C=C/c1ccc(O)c(F)c1)CCCCc1ccccc1` [Compound X], in assay [1], the inhibition at 10 µM is not above 0%. Regarding `O=C(/C=C/c1ccc(O)c(O)c1)c1ccccc1` [III], in assay [1], the inhibition at 10 µM was 84%. On the same count and under the same terms, with `O=C(CCCCc1ccccc1)CCc1ccc(O)c(O)c1` [II] the figure was 30%; with `O=C(/C=C/c1ccc(O)c(O)c1)Cc1ccccc1` [IV], 56%.

Turning to `O=C(/C=C/c1cccc(O)c1)CCCCc1ccccc1` [IX], the inhibition at 10 µM in assay [1] was not above 0%. Same read-out and setting: with `O=C(/C=C/c1ccc(O)cc1)CCCCc1ccccc1` [VIII] the figure was not above 0%.

As for `O=C(/C=C/c1ccc(O)c([N+](=O)[O-])c1)CCCCc1ccccc1` [XIII], in assay [1], the inhibition at 10 µM worked out at 7%. On the same count and under the same terms, with `O=C(/C=C/c1ccc(O)c(Br)c1)CCCCc1ccccc1` [XII] the figure was 1%. The same measure, in the same setting: with `COc1cc(/C=C/C(=O)CCCCc2ccccc2)ccc1O` [XIV] the figure was 1%; with `O=C(/C=C/c1ccc(O)c(Cl)c1)CCCCc1ccccc1` [XI], 4%. Take `COc1cc(/C=C/C(=O)CC(=O)/C=C/c2ccc(O)c(OC)c2)ccc1O` [curcumin]: in assay [6], the IC50 is 30 µM.
